Target: T1, BlsL (Streptomyces griseochromogenes, UniProt Q841K2)
T1 construct: gene J2Z21_009042; full length, His-tagged, pET28a NdeI/EcoRI, E. coli BL21(DE3); gene from cluster plasmid pJTU1780; primers encode N-terminus MEQSTGA, C-terminus CFYKD
Experiment: SAM released from boiled purified BlsL; HPLC and MS/MS
Format: binding
Conditions: co-purified endogenous ligand; methyl donor

T1 sequence (Q841K2 1-213): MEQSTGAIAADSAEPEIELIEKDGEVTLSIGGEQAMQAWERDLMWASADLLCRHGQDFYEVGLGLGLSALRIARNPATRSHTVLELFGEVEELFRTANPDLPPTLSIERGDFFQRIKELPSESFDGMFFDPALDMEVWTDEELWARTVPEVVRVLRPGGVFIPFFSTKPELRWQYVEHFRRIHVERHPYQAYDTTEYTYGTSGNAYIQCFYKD

`C[S+](CC[C@H](N)C(=O)O)C[C@H]1O[C@@H](n2cnc3c(N)ncnc32)[C@H](O)[C@@H]1O` (stereo partly shown) [SAM] was tested, and the “SAM released from boiled purified BlsL; HPLC and MS/MS” value was “Association of SAM with BlsL was confirmed by HPLC as well as MS/MS fragmentation”.

Reference: paper PMC5572114, “Guanidine N-methylation by BlsL Is Dependent on Acylation of Beta-amine Arginine in the Biosynthesis of Blasticidin S” (Frontiers in Microbiology, 2017)
